Measured values reported in US20050277696A1, “Novel use of cytotoxic drugs for treatment and prophylasxis of aging diseases by reversing the loss of elasticity of epithelial cells due to aging” (priority 2004, published 2005).

System: human epithelial cells
Assay: clonal growth of human epithelial cells in cell culture over 7 days (surviving colonies counted)
Format: cell-based
Source text: Therefore, before the comparison of results based on rigidity of older cells against younger and more elastic cells, the proper concentration of the drug must be found. Dissolved in an appropriate solvent (for example, dimethylsulfoxide for Cytochalasin D, B and Latrunculin A, B, Jasplakinolide), the drug should be added to the cell culture medium. […] The amount of the drug should not be in such a high concentration that would result in the destruction of the cells. As an example, when the treatment of the old cells is done with Cytochalasin B, a cell permeable fungal toxin which binds to the barbed end of actin filaments and results in the inhibition of both the association and dissociation of its subunits, a 4 μg/mL solution of Cytochalasin B in the medium was optimal to treat viable cells for 12 hours. This concentration was determined by performing experiments to measure clonal growth of human epithelial cells in cell culture over 7 days in different concentrations of the drug. The number of surviving colonies of cells was counted to determine the range of concentrations that were non-toxic or non-cytostatic. This range was from 1.0 to 10 μg/mL. The determination of the appropriate concentration of a cytotoxic drug is dependent upon the particular drug of choice, but one skilled in the art would recognize methods to determine the appropriate drug concentration.

C=C1[C@@H](C)[C@H]2[C@H](Cc3ccccc3)NC(=O)[C@]23OC(=O)/C=C/[C@H](O)CCC[C@@H](C)C/C=C/[C@H]3[C@@H]1O [Cytochalasin B]
range of concentrations that were non-toxic or non-cytostatic (clonal growth over 7 days in different concentrations of the drug, number of surviving colonies counted): 1.0 to 10 µg/mL
optimal concentration in the medium to treat viable cells (old cells, treatment for 12 hours, solution in the medium): 4 µg/mL
